Assay results from patent US5686416A, “Increasing blood-brain barrier permeability with permeabilizer peptides” (priority 1993, dated 1997).

Experiments:
C. neoformans = experiment: Experimentally-induced cryptococcal meningitis in rabbits, CSF colony counts; type: in vivo, Cryptococcus neoformans; details: 1 mg AmB/kg daily i.v., Days 11 and 14
Description: Four day old cultures of C. neoformans containing 100 μg of chloramphenicol per mL were absorbed on cotton swabs, suspended in 15 mM phosphate-buffered saline, and adjusted to approximately 5×10^7 colony forming units (CFU)/mL. New Zealand White rabbits (2-3 kg) were immunosuppressed with 2.5 mg cortisone acetate administered intramuscularly (i.m.) beginning one day prior to inoculation with C. neoformans (Day 0), and once daily thereafter until study termination. On Day 1 rabbits were sedated with ketamine (100-150 mg) and xylazine (15-25 mg) i.m., and intracisternally inoculated with 0.3 mL of C. neoformans suspension. On Day 4 CSF was collected and plated on agar plates containing chloramphenicol to establish a baseline level for C. neoformans counts (CFU/mL), and drug treatment was then initiated. CSF samples were also withdrawn for C. neoformans counts on Days 7, 11 and 14. The duration of drug treatment was 10 days.
Each group size generally consisted of three to five animals. All treatments were administered via an ear vein, and permeabilizer A-7 was always administered immediately prior to AmB. CSF samples were always withdrawn prior to drug therapy on treatment days.

9L Glioma cells = experiment: Survival time of rats with brain tumor implants; type: in vivo
Description: Male Fischer 344 rats (200-250 g) were anesthetized with ketamine HCL (100 mg/kg) and acepromazine (10 mg/kg). The animals were placed in a stereotaxic device. The head of each animal was shaved and a midline incision was made to expose the skull. A small hole was drilled over the right sensorimotor cortex. A […] cell suspension (250,000 9L Glioma cells) was injected over 5 minutes into the right caudate putamen of each animal and the scalp sutured. Animals were observed daily for signs of failing health. When signs of very poor health were observed (eye hemorrhage or loss of righting reflex) animals were euthanatized and the brains examined for presence of tumor.
The results are shown in Table III as median survival with range.

dopamine receptors = details: rats; 300 μg domperidone with or without 10 μg permeabilizer A-7, one hour before apomorphine 0.75 mg/kg s.c.
Description: Domperidone is a dopamine receptor antagonist used clinically as an anti-emetic by virtue of its action at the area postrema outside the blood-brain barrier.
The activity cages were standard size rat cages with two photocell beams running across the floor of each cage. Any movement of the rat through either of the beams was recorded by a computer. Locomotor activity was measured as the number of beam breaks in a sequence of 10-minute intervals over a two hour period.
The motor activity of the rats was measured in activity cages over 10-minute intervals for up to 2 hours post-apomorphine injection.

blood-brain barrier [1] = experiment: Uptake of radiolabelled substances of different molecular weights into the brain (Table I)
Description: The animals were euthanatized 10 minutes after the co-administration and the radioactivity present in brain was measured as described previously for ^14 C sucrose.

opiate receptor = experiment: Tail flick assay, antinociceptive effect of loperamide; type: in vivo; details: mice; nalorphine 10 mg/kg i.p. 15 minutes before
Description: Female Nalb/C mice weighing approximately 20 g were used. The tail flick assay was performed using a Tail Flick Apparatus model TF6 (Emdie Instruments, Maidens, Va.). The intensity of the heat source was adjusted daily to yield a reaction time between 2.0 and 3.2 seconds in naive untreated mice. The maximum time of exposure to the heat source allowed was 7.5 seconds. The tail withdrawal reaction time of each mouse was measured 4 times at 10 second intervals immediately prior to intravenous injections of the experimental substances via the tail vein. The last three values were averaged and taken as baseline value (Vo). Another set of four measurements was taken at the following intervals after tail vein injection of the opiate receptor agonist loperamide with and without the other agents: immediately, 5 min, 10 min, 15 min, 30 min, and 60 min. The last three values for each of these time points (V) were averaged. […] The results were expressed as percent of maximum antinociceptive response according to the formula: 100×(V-Vo)/(7.5-Vo).

angiotensin II receptors = experiment: Drinking behavior of rats with angiotensin II analogue; type: in vivo; details: 1 μg β-Asp^1 -angiotensin II, 10 μg permeabilizer A-7, with or without 8 μg saralasin i.v., 1 hour
Description: The volume of water consumed by each rat over a 1 hour interval was measured.
The saralasin was given because it is a known angiotensin II receptor antagonist. Again, the volume of water consumed by each rat over a 1 hour interval was measured.

blood-brain barrier [2] = experiment: Dose response of blood-brain barrier permeabilizers, sucrose uptake studies; type: in vivo; details: mice; various amounts; FIGS. 3c and 3d
Description: Female Balb/C mice weighing approximately 20 g were used. All solutions were prepared in sterile phosphate-buffered saline. […] In other experiments, mice were euthanitized 10 minutes after the ^14 C sucrose administration. Blood was collected in heparinized tubes and centrifuged to separate plasma from the resulting pellet. Radioactivity in a 100 μl aliquot of plasma was measured by liquid scintillation counting after the addition of 15 ml of Aquasol-2 (Dupont). The brain was removed and homogenized in 2.5 ml of water and 2.5 ml of 1% sodium dodecyl sulfate (SDS). One ml of the homogenate was aliquoted and added to 15 ml of Aquasol-2 for counting. Brain uptake of sucrose was calculated and graphically expressed as percent of injected dose×100. […] Each data point represents the mean ± s.d. from 8 mice.

bradykinin receptor = biological target: T1, bradykinin receptor (Rattus norvegicus, UniProt P25023); experiment: Displacement of [^3 H]-bradykinin binding on rat brain endothelial cells; details: no competing peptide; corrected for nonspecific binding
T1 construct: endogenous in cells; host or cells: cultured rat brain microvessel endothelial cells, passages 9 to 12, intact monolayers
T1 sequence (P25023 1-396): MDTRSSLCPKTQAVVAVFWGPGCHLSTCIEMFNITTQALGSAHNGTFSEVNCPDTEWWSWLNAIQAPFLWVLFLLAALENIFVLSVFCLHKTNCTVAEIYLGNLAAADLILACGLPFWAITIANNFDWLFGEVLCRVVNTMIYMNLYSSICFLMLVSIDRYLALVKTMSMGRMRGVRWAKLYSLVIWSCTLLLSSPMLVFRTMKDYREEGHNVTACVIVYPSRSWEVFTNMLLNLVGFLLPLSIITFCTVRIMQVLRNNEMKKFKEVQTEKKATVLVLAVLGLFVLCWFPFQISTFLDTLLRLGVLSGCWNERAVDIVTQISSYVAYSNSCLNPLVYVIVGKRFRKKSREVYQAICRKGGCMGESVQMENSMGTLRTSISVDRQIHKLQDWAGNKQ
Description: Endothelial cells employed in this study were isolated from individual rat brain microvessels and cultured. For binding studies, cells at passages 9 to 12 were seeded (at a 1:5 split) onto gelatinized 24-well tissue culture dishes. Binding experiments were conducted on day 7 after seeding. […] All subsequent manipulations were performed in the cold room, unless otherwise indicated.
To initiate binding incubations, the buffer was removed from cell layers and replaced with 0.4 mL fresh binding buffer at 4° C. containing [^3 H-pro^2,3 ]-bradykinin ([^3 H]-bradykinin) and competing non-radioactive peptides at concentrations indicated for the individual experiments. Triplicate wells were used for each experimental condition. For later determination of cell number, where indicated, certain wells were covered with binding buffer without radioligand and incubated in parallel with the other samples. […]
The dissociated cells were collected, diluted into 10 mL Isoton diluent, and cell numbers were determined with a Coulter counter. […] The two aliquots were pooled into a single scintillation vial, 10 mL of Hydrofluor scintillation fluid was added and samples were counted for tritium in a scintillation counter. […] Aliquots of each [^3 H]-bradykinin dilution that was added to the cells were counted along with the other samples. […]

[3] = Table IV, additional experiment

C[C@@H]1[C@H](O)[C@@H](C)/C=C/C=C/C=C/C=C/C=C/C=C/C=C/[C@H](O[C@@H]2O[C@H](C)[C@@H](O)[C@H](N)[C@@H]2O)C[C@@H]2O[C@](O)(C[C@@H](O)C[C@@H](O)[C@H](O)CC[C@@H](O)C[C@@H](O)CC(=O)O[C@H]1C)C[C@H](O)[C@H]2C(=O)O [AmB, Amphotericin B]
CSF C. neoformans counts compared to controls (C. neoformans): significantly lowered

N.N.[Cl][Pt][Cl] [Cisplatin]
Median Survival (9L Glioma cells; Table III, Fischer 344 rats, 9L glioma, i.v. treatment days 5 through 14, cisplatin 200 μg/rat, A-7 50 μg, bradykinin 1 mg): 13 days | Survival, Range (9L Glioma cells; Table III, Fischer 344 rats, 9L glioma, treatment days 5 through 14): 9 to 18 days | Median Survival (9L Glioma cells; [3]): 15.5 days | Survival, Range (9L Glioma cells; [3]): 12 to 18 days

O=c1[nH]c2ccccc2n1CCCN1CCC(n2c(=O)[nH]c3cc(Cl)ccc32)CC1 [Domperidone]
effect on motor activity induced by apomorphine (dopamine receptors): little, if any, effect

OC[C@H]1O[C@@](CO)(O[C@H]2O[C@H](CO)[C@@H](O)[C@H](O)[C@H]2O)[C@@H](O)[C@@H]1O [^14 C-Sucrose, Sucrose]
% Injected Dose, +10 μg A-7 (blood-brain barrier [1]; mouse, in vivo, iv): 0.165 ± 0.049 % Injected Dose | % Injected Dose, Control (blood-brain barrier [1]; mouse, in vivo, iv): 0.059 ± 0.014 % Injected Dose

C=CCN1CC[C@]23c4c5ccc(O)c4O[C@H]2[C@@H](O)C=C[C@H]3[C@H]1C5 [nalorphine]
effect of pretreatment on the antinociceptive response to permeabilizer A-7 and loperamide (opiate receptor): completely antagonized

CNCC(=O)N[C@@H](CCCN=C(N)N)C(=O)N[C@H](C(=O)N[C@@H](Cc1ccc(O)cc1)C(=O)N[C@H](C(=O)N[C@@H](Cc1cnc[nH]1)C(=O)N1CCC[C@H]1C(=O)N[C@@H](C)C(=O)O)C(C)C)C(C)C [saralasin]
water consumption (angiotensin II receptors): remained within a normal range

Inulin [^3 H-Inulin]
% Injected Dose, +10 μg A-7 (blood-brain barrier [1]; mice, brain, labelled molecule i.v. with 10 μg permeabilizer A-7, 10 minutes, mean ± s.d.): 0.110 ± 0.016 % Injected Dose | % Injected Dose, Control (blood-brain barrier [1]; mice, brain, labelled molecule i.v. with saline, 10 minutes, mean ± s.d.): 0.075 ± 0.018 % Injected Dose

[D-Arg^0 ]-A-7 [A-14]
uptake of ^14 C-sucrose into the brain compared with A-7 (blood-brain barrier [2]): comparable to A-7

[dehydro Pro^2,7 ]-A-7 [A-9]
uptake of ^14 C-sucrose into the brain compared with A-7 (blood-brain barrier [2]): comparable to A-7

^3 H-Bovine Serum Albumin: radiolabelled bovine serum albumin, mol. weight 68,000
% Injected Dose, +10 μg A-7 (blood-brain barrier [1]; mouse, in vivo, iv): 0.209 ± 0.056 % Injected Dose | % Injected Dose, Control (blood-brain barrier [1]; mouse, in vivo, iv): 0.333 ± 0.098 % Injected Dose

arginine-proline-proline-glycine-phenylalanine-serine-proline-phenylalanine-arginine [[^3 H]-bradykinin]
Scatchard analysis of [^3 H]-bradykinin binding (bradykinin receptor): two affinity classes of [^3 H]-bradykinin binding site

B1: ^3 H-RNase: radiolabelled RNase, mol. weight 12,600 (protein, UniProt P61823 27-150, looked up)
Ribonuclease pancreatic: KETAAAKFERQHMDSSTSAASSSNYCNQMMKSRNLTKDRCKPVNTFVHESLADVQAVCSQKNVACKNGQTNCYQSYSTMSITDCRETGSSKYPNCAYKTTQANKHIIVACEGNPYVPVHFDASV
modifications: tritium label
% Injected Dose, +10 μg A-7 (blood-brain barrier [1]; mouse, in vivo, iv): 0.117 ± 0.030 % Injected Dose | % Injected Dose, Control (blood-brain barrier [1]; mouse, in vivo, iv): 0.123 ± 0.039 % Injected Dose

B2: ^3 H-Ovalbumin: radiolabelled ovalbumin, mol. weight 46,000 (protein, UniProt P01012 2-386, looked up)
Ovalbumin: GSIGAASMEFCFDVFKELKVHHANENIFYCPIAIMSALAMVYLGAKDSTRTQINKVVRFDKLPGFGDSIEAQCGTSVNVHSSLRDILNQITKPNDVYSFSLASRLYAEERYPILPEYLQCVKELYRGGLEPINFQTAADQARELINSWVESQTNGIIRNVLQPSSVDSQTAMVLVNAIVFKGLWEKAFKDEDTQAMPFRVTEQESKPVQMMYQIGLFRVASMASEKMKILELPFASGTMSMLVLLPDEVSGLEQLESIINFEKLTEWTSSNVMEERKIKVYLPRMKMEEKYNLTSVLMAMGITDVFSSSANLSGISSAESLKISQAVHAAHAEINEAGREVVGSAEAGVDAASVSEEFRADHPFLFCIKHIATNAVLFFGRCVSP
modifications: tritium label
% Injected Dose, +10 μg A-7 (blood-brain barrier [1]; mouse, in vivo, iv): 0.093 ± 0.017 % Injected Dose | % Injected Dose, Control (blood-brain barrier [1]; mouse, in vivo, iv): 0.079 ± 0.016 % Injected Dose
